Measured values: ChEMBL document CHEMBL1201862, “PubChem BioAssay data set” (2004)
“And” between values parts separate entries of the source, which are not always exact repeats. Equal entries are not always repeated.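 Grown in 96-well plates, cells were treated for 48 hours with each compound at five concentrations. Insufficient inhibition: endpoint recorded as highest concentration tested. The concentration for 50% growth inhibition is given as GI50.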 The source made the active and inactive calls. Cut-off read from the data, not from the text of the source: active = GI50 up to about 1.1 µM and inactive = higher.

How the values were obtained:
Experiment in all cases: NCI tumour cell line growth inhibition, 48 h
HOP-62 = test system: HOP-62
OVCAR-5 = test system: OVCAR-5
HCT-116 = test system: HCT-116
SK-MEL-2 = test system: SK-MEL-2
A549 = test system: A549
K562 = test system: K562
MOLT-4 = test system: MOLT-4
NCI-H460 = test system: NCI-H460
MCF7 = test system: MCF7
Malme-3M = test system: Malme-3M
HOP-92 = test system: HOP-92
U-251 = test system: U-251
SF-539 = test system: SF-539
MDA-N = test system: MDA-N
MDA-MB-435 = test system: MDA-MB-435
RXF 393 = test system: RXF 393
IGROV-1 = test system: IGROV-1
UACC-257 = test system: UACC-257
SW-620 = test system: SW-620
TK-10 = test system: TK-10

Measured: GI50

Cc1c(Cl)cccc1NC(=O)CC1Sc2ccccc2NC1=O (stereo not drawn)
inactive: HOP-62 10.1 µM and 18.2 µM | OVCAR-5 48.9 µM and 51.8 µM | HCT-116 13.9 µM and 15.8 µM | SK-MEL-2 16.4 µM and 17.9 µM | A549 19.8 µM and 29.2 µM | K562 6.59 µM and 6.53 µM | MOLT-4 24.4 µM and 26.5 µM | NCI-H460 22.4 µM and 23.2 µM | MCF7 11 µM | Malme-3M 19.5 µM and 18.5 µM | HOP-92 17.7 µM and 33 µM | U-251 14.7 µM and 17.3 µM | SF-539 17.9 µM and 20.9 µM | MDA-N 2.71 µM | MDA-MB-435 2.82 µM | RXF 393 8.39 µM and 16 µM

C=C(C(=O)O)[C@@H]1C[C@@H]2O[C@H]1[C@@H](O)[C@@H](C)CCCC(C)=CCC[C@@]2(C)O
inactive: IGROV-1 92.9 µM and > 75 µM | UACC-257 > 100 µM | HOP-62 > 100 µM | OVCAR-5 > 100 µM | HCT-116 64.1 µM and > 83.4 µM | SK-MEL-2 > 100 µM | A549 > 100 µM | SW-620 39.8 µM and 58.1 µM | TK-10 > 100 µM and > 52.1 µM | NCI-H460 > 100 µM | MCF7 46 µM and > 91.6 µM | Malme-3M > 100 µM and > 72.9 µM | HOP-92 > 100 µM and 99.8 µM | U-251 > 100 µM and 97.3 µM | SF-539 87.5 µM | MDA-N 59.4 µM and 71.1 µM | MDA-MB-435 71.8 µM and > 81.3 µM | RXF 393 > 100 µM and > 89.1 µM

Clc1ccc(C2=CC(c3ccccc3)N3C(=N[C@H]4CCCC[C@@H]43)N2)cc1 (stereo partly drawn)
inactive: IGROV-1 3.39 µM | UACC-257 12.9 µM | OVCAR-5 11.5 µM | HCT-116 3.03 µM | SK-MEL-2 13.6 µM | A549 5.47 µM | SW-620 3.74 µM | K562 2.09 µM | TK-10 7.5 µM | MOLT-4 2.64 µM | NCI-H460 2.88 µM | MCF7 3.55 µM | Malme-3M 2.67 µM | HOP-92 4.68 µM | U-251 4.54 µM | SF-539 6.08 µM | MDA-N 6.05 µM | MDA-MB-435 7.57 µM | RXF 393 2.47 µM

CN(C)c1ccc(C2CC(c3ccc4ccccc4c3O)=NN2c2ccc([N+](=O)[O-])cc2[N+](=O)[O-])cc1 (stereo not drawn)
inactive: IGROV-1 26.2 µM | UACC-257 58.5 µM | HOP-62 75.5 µM | OVCAR-5 > 100 µM | HCT-116 37.5 µM | SK-MEL-2 25.5 µM | A549 32.3 µM | SW-620 36.3 µM | TK-10 > 100 µM | MOLT-4 22.8 µM | NCI-H460 32.3 µM | MCF7 23.8 µM | Malme-3M 19.2 µM | HOP-92 > 100 µM | U-251 41.9 µM | SF-539 50.9 µM | MDA-N 16.3 µM | MDA-MB-435 17.5 µM | RXF 393 41.2 µM

CC1(C)OC(=O)C(C#N)=C1C[n+]1ccccc1
inactive: IGROV-1 > 10 µM | UACC-257 > 10 µM | HOP-62 > 10 µM | OVCAR-5 > 10 µM | SK-MEL-2 > 10 µM | SW-620 > 10 µM | K562 > 10 µM | TK-10 > 10 µM | MOLT-4 > 10 µM | NCI-H460 > 10 µM | MCF7 > 10 µM | Malme-3M > 10 µM | HOP-92 > 10 µM | U-251 > 10 µM | SF-539 > 10 µM | MDA-N > 10 µM | MDA-MB-435 > 10 µM | RXF 393 > 10 µM

O=C(Nc1ccc(Cl)cc1Cl)c1cc2nc3ccccc3c(=O)n2c2ccccc12
inactive: IGROV-1 > 10 µM | UACC-257 > 10 µM | HOP-62 > 10 µM | OVCAR-5 > 10 µM | HCT-116 > 10 µM | SK-MEL-2 > 10 µM | A549 > 10 µM | SW-620 > 10 µM | K562 > 10 µM | TK-10 > 10 µM | NCI-H460 > 10 µM | MCF7 > 10 µM | Malme-3M > 10 µM | HOP-92 > 10 µM | U-251 > 10 µM | SF-539 > 10 µM | MDA-N > 10 µM | MDA-MB-435 > 10 µM | RXF 393 > 10 µM

O=C(O)c1ccc(OCc2nc3cc(C(F)(F)F)ccc3nc2-c2ccccc2)cc1
inactive: IGROV-1 56 µM | UACC-257 78.7 µM | HOP-62 66.2 µM | OVCAR-5 > 100 µM | HCT-116 36.9 µM | SK-MEL-2 37.9 µM | A549 39.2 µM | SW-620 53.2 µM | K562 39.4 µM | TK-10 71 µM | NCI-H460 24.7 µM | MCF7 45 µM | HOP-92 29 µM | U-251 44.2 µM | SF-539 32.1 µM | MDA-N 46.1 µM | MDA-MB-435 55.2 µM | RXF 393 36.8 µM

C=CCSC1=N/C(=C\c2ccc(C)cc2)C(=O)N1CC=C
inactive: IGROV-1 44.2 µM | UACC-257 25.6 µM | HOP-62 64.6 µM | OVCAR-5 25.4 µM | HCT-116 18.4 µM | SK-MEL-2 25.8 µM | A549 21.3 µM | SW-620 32.4 µM | K562 10.4 µM | TK-10 44.3 µM | NCI-H460 34.3 µM | MCF7 20.9 µM | HOP-92 11.7 µM | U-251 22.7 µM | SF-539 25.8 µM | MDA-N 18.6 µM | MDA-MB-435 25.9 µM | RXF 393 15.3 µM

CC(C)(C)OC(=O)Nc1nnc(S(N)(=O)=O)s1
inactive: UACC-257 > 100 µM | HOP-62 > 100 µM | OVCAR-5 > 100 µM | HCT-116 > 100 µM | SK-MEL-2 > 100 µM | A549 > 100 µM | SW-620 > 100 µM | K562 > 100 µM | TK-10 > 100 µM | MOLT-4 > 100 µM | NCI-H460 > 100 µM | MCF7 > 100 µM | Malme-3M > 100 µM | HOP-92 > 100 µM | U-251 > 100 µM | SF-539 > 100 µM | MDA-N > 100 µM | MDA-MB-435 > 100 µM | RXF 393 > 100 µM

C[N+]1(CCC[N+]2(C)CC3C4C=CC(CC4)C3C2)CCOCC1 (stereo not drawn)
inactive: IGROV-1 > 100 µM | UACC-257 > 100 µM | HOP-62 > 100 µM | OVCAR-5 > 100 µM | HCT-116 > 100 µM | SK-MEL-2 > 100 µM | A549 > 100 µM | SW-620 > 100 µM | K562 > 100 µM | TK-10 > 100 µM | MOLT-4 > 100 µM | MCF7 > 100 µM | Malme-3M > 100 µM | HOP-92 > 100 µM | U-251 > 100 µM | SF-539 > 100 µM | MDA-N > 100 µM | MDA-MB-435 > 100 µM | RXF 393 > 100 µM
